Assay results reported in patent US7186755B2 (Helsinn Health Care S.A., priority 1997, dated 2007).
Like-named read-outs stand apart in the source and are kept apart here.

Legend:
[1] = rats, 14C nimesulide
[2] = human volunteers, 14C nimesulide

CS(=O)(=O)Nc1ccc([N+](=O)[O-])cc1Oc1ccccc1 [Nimesulide]
Systemic concentrations of nimesulide after dermal application [1]: no significant systemic concentrations
Systemic concentrations of nimesulide after dermal application [2]: no significant systemic concentrations
